In patent publication US11214803B2, “Modulators of YAP1 expression” (Ionis Pharmaceuticals, Inc., priority 2019, dated 2022):
Strand notation (5' to 3'): a small letter for the sugar, then the base; units joined by * are phosphorothioate-linked, units joined directly phosphodiester-linked; [ ] holds rarer units or linkages, { } end groups; capitals alone tell only the bases. k = constrained ethyl (cEt); [5mC] = 5-methylcytosine; d = 2'-deoxy (DNA)

System: Yap1 mRNA
Experiment: Dose-dependent inhibition of human Yap1 in A-431 cells (Example 8, 10,000 cells per well, RTS4814)
Assay type: cell-based
Settings: free uptake, approximately 48 hours, RTS4814; for Yap1 mRNA, % UTC: A-431 cells, 10,000 cells per well; for IC50: A-431 cells, linear regression on log/linear plot
Outline: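 A-431 cells (10,000/well) dosed with modified oligonucleotides by free uptake; Yap1 mRNA measured ~48 h later with primer-probe set RTS4814, normalized to total RNA (RIBOGREEN). Values are % of untreated control; IC50 from linear regression on log/linear plot.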

## 1075784 (kA*kT*kT*dT*dT*dA*dT*dA*dG*dG*dG*d[5mC]*d[5mC]*kA*kT*kT; antisense) [compound 1075784]
31.3 nM
  Yap1 mRNA, % UTC: 54 % UTC
125.0 nM
  Yap1 mRNA, % UTC: 18 % UTC
500.0 nM
  Yap1 mRNA, % UTC: 5 % UTC
2000.00 nM
  Yap1 mRNA, % UTC: 3 % UTC
  IC50: < 20 nM

## 1075078 (antisense k[5mC]*kA*kA*d[5mC]*dT*dA*dT*dA*d[5mC]*dG*dG*dT*d[5mC]*k[5mC]*kA*kT) [compound 1075078]
31.3 nM
  Yap1 mRNA, % UTC: 65 % UTC
125.0 nM
  Yap1 mRNA, % UTC: 32 % UTC
500.0 nM
  Yap1 mRNA, % UTC: 12 % UTC
2000.00 nM
  Yap1 mRNA, % UTC: 4 % UTC
  IC50: 100 nM

## 1074368 (kG*kA*kT*dA*dG*dT*dA*dT*d[5mC]*dA*d[5mC]*d[5mC]*dT*kG*kT*kA; antisense) [compound 1074368]
31.3 nM
  Yap1 mRNA, % UTC: 67 % UTC
125.0 nM
  Yap1 mRNA, % UTC: 34 % UTC
500.0 nM
  Yap1 mRNA, % UTC: 15 % UTC
2000.00 nM
  Yap1 mRNA, % UTC: 10 % UTC
  IC50: 100 nM

## 1075243 (k[5mC]*kT*kT*dA*dG*dT*dA*dA*dG*dA*dA*dT*dT*kG*kT*k[5mC]; antisense) [compound 1075243]
31.3 nM
  Yap1 mRNA, % UTC: 50 % UTC
125.0 nM
  Yap1 mRNA, % UTC: 18 % UTC
500.0 nM
  Yap1 mRNA, % UTC: 7 % UTC
2000.00 nM
  Yap1 mRNA, % UTC: 5 % UTC
  IC50: < 20 nM

## 1076449 (k[5mC]*k[5mC]*kT*dT*dA*dT*dA*dA*dT*dG*d[5mC]*dA*dA*kT*k[5mC]*k[5mC]; antisense) [compound 1076449]
31.3 nM
  Yap1 mRNA, % UTC: 44 % UTC
125.0 nM
  Yap1 mRNA, % UTC: 8 % UTC
500.0 nM
  Yap1 mRNA, % UTC: 3 % UTC
2000.00 nM
  Yap1 mRNA, % UTC: 2 % UTC
  IC50: < 20 nM

## 1076291 (kG*kA*kT*dT*dA*dA*dT*dG*dG*dT*dG*dG*d[5mC]*kA*kT*kT; antisense) [compound 1076291]
31.3 nM
  Yap1 mRNA, % UTC: 75 % UTC
125.0 nM
  Yap1 mRNA, % UTC: 26 % UTC
500.0 nM
  Yap1 mRNA, % UTC: 8 % UTC
2000.00 nM
  Yap1 mRNA, % UTC: 5 % UTC
  IC50: 100 nM

## 1074593 (DNA kA*kG*kG*dA*dG*d[5mC]*dA*dA*dG*dT*d[5mC]*dT*dT*kG*kT*kA) [compound 1074593]
31.3 nM
  Yap1 mRNA, % UTC: 50 % UTC
125.0 nM
  Yap1 mRNA, % UTC: 20 % UTC
500.0 nM
  Yap1 mRNA, % UTC: 9 % UTC
2000.00 nM
  Yap1 mRNA, % UTC: 8 % UTC
  IC50: < 20 nM

## 1076327 (kG*kA*kT*dA*dA*dG*d[5mC]*dA*dA*dG*dG*dT*dT*k[5mC]*kT*k[5mC]; antisense) [compound 1076327]
31.3 nM
  Yap1 mRNA, % UTC: 73 % UTC
125.0 nM
  Yap1 mRNA, % UTC: 38 % UTC
500.0 nM
  Yap1 mRNA, % UTC: 17 % UTC
2000.00 nM
  Yap1 mRNA, % UTC: 9 % UTC
  IC50: 100 nM

## 1075748 (kG*kT*kA*dA*dA*dT*d[5mC]*dA*dA*dG*dT*dT*dG*k[5mC]*kA*kT; antisense) [compound 1075748]
31.3 nM
  Yap1 mRNA, % UTC: 81 % UTC
125.0 nM
  Yap1 mRNA, % UTC: 36 % UTC
500.0 nM
  Yap1 mRNA, % UTC: 12 % UTC
2000.00 nM
  Yap1 mRNA, % UTC: 7 % UTC
  IC50: 100 nM

## 1076416 (kA*k[5mC]*k[5mC]*dG*dA*dA*dA*dT*dG*dA*dT*dA*d[5mC]*kT*kG*kA; antisense) [compound 1076416]
31.3 nM
  Yap1 mRNA, % UTC: 67 % UTC
125.0 nM
  Yap1 mRNA, % UTC: 33 % UTC
500.0 nM
  Yap1 mRNA, % UTC: 13 % UTC
2000.00 nM
  Yap1 mRNA, % UTC: 7 % UTC
  IC50: 100 nM

## 1074313 (antisense kT*kG*kA*dT*dA*dT*dT*d[5mC]*d[5mC]*dG*d[5mC]*dA*dT*kT*kG*k[5mC]) [compound 1074313]
31.3 nM
  Yap1 mRNA, % UTC: 56 % UTC
125.0 nM
  Yap1 mRNA, % UTC: 21 % UTC
500.0 nM
  Yap1 mRNA, % UTC: 9 % UTC
2000.00 nM
  Yap1 mRNA, % UTC: 5 % UTC
  IC50: < 20 nM

## 1076003 (kA*kA*kT*dT*dT*dA*dA*dT*dG*dG*d[5mC]*dT*dT*kG*k[5mC]*kA; antisense) [compound 1076003]
31.3 nM
  Yap1 mRNA, % UTC: 60 % UTC
125.0 nM
  Yap1 mRNA, % UTC: 28 % UTC
500.0 nM
  Yap1 mRNA, % UTC: 17 % UTC
2000.00 nM
  Yap1 mRNA, % UTC: 11 % UTC
  IC50: 40 nM

## 1074315 (antisense kG*kA*kT*dT*dG*dA*dT*dA*dT*dT*d[5mC]*d[5mC]*dG*k[5mC]*kA*kT) [compound 1074315]
31.3 nM
  Yap1 mRNA, % UTC: 57 % UTC
125.0 nM
  Yap1 mRNA, % UTC: 26 % UTC
500.0 nM
  Yap1 mRNA, % UTC: 9 % UTC
2000.00 nM
  Yap1 mRNA, % UTC: 5 % UTC
  IC50: 30 nM
